Experiments:
Type in all cases: in vivo, C57BL6 mice
[1] = Body weight of mice pre-treated with compositions, DSS-induced colitis
Method: In this experiment, C57BL6 mice were employed for the following reasons. The experimental animals are widely used throughout the world and are evaluated as being suitable for validity assays. In addition, because a great amount of fundamental test data on various disease models of the animals has been accumulated, the data can be utilized in analyzing and assessing test results. When purchased from OrientBio Inc. the experimental animals weighed 18 g±20%. They were bred under a light intensity of 150˜300 Lux in the controlled condition of 12:12-h light-dark cycles, with at least 10 ventilation rounds per hour.
(§1) For use in testing therapeutic effects of the agents of Examples, Comparative Examples, and Control Examples, the mice (G1 to G7) were fed with a 2.5 wt % aqueous dextran sodium sulfate (DSS) solution to induce inflammatory bowel disease therein.
Weights are expressed as mean±standard deviation.
From Jan. 12, 2012, the mice were allowed to drink an aqueous DSS 2.5 wt % solution for 7 days. DSS-induced diarrhea or hematochezia caused mice in groups G2 to G7 to lose weight, as compared at the point of DSS treatment.

[2] = Side effects of S-allyl-L-cysteine
Text: Cyclosporine or prednisolone, which are […] used to treat colitis thanks to their immunosuppressive effects, are reported to have the side effect of weight gain.
The anti-inflammatory agents including mesalizine or mesalazine, NSAIDs, etc. are known to cause various side effects such as hypersensitive reactions, nausea, vomiting, headache, etc.

COX-2 = COX-2 expression in colon tissue by immunofluorescence
Method: as §1
The immunofluorescence of COX-2 was performed on paraffin unstained slides of animal tissues.

[3] = tested on: dextran sodium sulfate (DSS)-induced colitis mouse models; experiment: Disease Activity Index (DAI) score, DSS-induced colitis
Text: as §1
(§2) At the end of the test, Disease Activity Index (DAI) Scores were made in consideration of the degree of hematochezia and diarrhea, and are depicted in FIG. 3. In the graph, # represents significance (p<0.0001) compared to the normal (G1), and * represents significance (p<0.05), compared to the colitis animal model.

IL-6 = experiment: Level of inflammatory cytokine IL-6; conditions: G3 to G6 (12.5-100 mg/kg), FIG. 8, equivalency to control G7
Method: as §1
(§3) Levels of IL-1β IL-6, IL-12, and TNF-α, which are representative inflammation-inducing cytokines, were measured. […] The observation results are depicted in […].

IL-1β = experiment: Level of inflammatory cytokine IL-1β; conditions: G3 to G6 (12.5-100 mg/kg), FIG. 7, equivalency to control G7
Method: as §1, §3

[4] = tested on: dextran sodium sulfate (DSS)-induced colitis mouse models; experiment: Pathological observation of colon by H&E staining, total pathologic score
Method: as §1
Colon specimens taken were fixed in a 10% formalin solution and stained with hematoxylin & eosin (H&E stain), and their images are given in FIG. 5. Further, they were evaluated through a blind test under the criteria of a total of six histopathological opinions on inflammation (inflammation, follicle aggregation, oedema, erosion/ulceration, crypt loss, and infiltration of mono- and polymorphonuclear cells), and scored. Total pathologic scores obtained by summing up scores for each items and for the six opinions are depicted in FIG. 6.

TNF-α = experiment: Level of inflammatory cytokine TNF-α; conditions: G3 to G6 (12.5-100 mg/kg), FIG. 9, equivalency to control G7
Method: as §1, §3

Malondialdehyde (MDA) = experiment: Anti-oxidant activity: malondialdehyde (MDA), lipid peroxidation
Text: as §1
Malondialdehyde (MDA), accounting for the degree of lipid peroxidation, a representative marker of oxidation stress, was quantified.

[5] = tested on: total antioxidant concentration; experiment: Anti-oxidant activity: total antioxidant concentrations in tissues; conditions: G3 (12.5 mg/kg) compared to the DSS-treated group
Text: as §1
Its amount was discovered to decrease at a low concentration of S-allyl-L-cysteine as in G3 and G4, with statistical significance.

IL-12 = experiment: Level of inflammatory cytokine IL-12; conditions: G3 to G6 (12.5-100 mg/kg), FIG. 10, equivalency to control G7
Method: as §1, §3

[6] = tested on: dextran sodium sulfate (DSS)-induced colitis mouse models; experiment: Colon length from cecum to end of colon, DSS-induced colitis; conditions: G3 to G6 (12.5-100 mg/kg) compared to Comparative Example, with statistical significance, FIG. 4
Text: as §1
After 7 days of DSS drinking, the mice were sacrificed in an ether anesthetized condition, and the colon was excised.
as §2

O=C(NC(Cc1cc(=O)[nH]c2ccccc12)C(=O)O)c1ccc(Cl)cc1 (stereo not drawn) [Control, Rebamipide, reference compound]
Body weight (mean ± standard deviation) ([1]; G7, Control 50 mg/kg, 2012.01.12, at the time of DSS treatment): 23.2 ± 1.2 g | Body weight (mean ± standard deviation) ([1]; G7, Control 50 mg/kg, 2012.01.18, at autopsy after 7 days DSS 2.5 wt %): 21.1 ± 0.9 g | Side effects (hypersensitive reactions, nausea, vomiting, headache, etc.) ([2]; control G7, extended test period of 12 weeks): side effects detected | COX-2 expression in the fascial tissue beneath the mucosal tissue (COX-2; G7 (Control 50 mg/kg), immunofluorescence): did not effectively do so | COX-2 expression in mucosal tissues (COX-2; G7 (Control 50 mg/kg), immunofluorescence, FIG. 13): inhibited COX-2 expression in mucosal tissues

C=CCSC[C@H](N)C(=O)O [Example 1, S-allyl-L-cysteine]
Therapeutic effects (DAI, colon length) compared with conventional agent (G7) ([3]; G3 to G6 (12.5-100 mg/kg) vs G7 (Control 50 mg/kg)): equivalent to or higher than those of the conventional agent | Disease Activity Index (DAI) score ([3]; G3 to G6 (12.5-100 mg/kg), DSS 2.5 wt %, end of test, FIG. 3): score low in DAI | Expression level of IL-6 (IL-6): decreased expression levels | Body weight (mean ± standard deviation) ([1]; G3, Ex. 1 12.5 mg/kg, 2012.01.12, at the time of DSS treatment, 12.5 mg/kg): 22.1 ± 2.4 g | Body weight (mean ± standard deviation) ([1]; G3, Ex. 1 12.5 mg/kg, 2012.01.18, at autopsy after 7 days DSS 2.5 wt %, 12.5 mg/kg): 20.3 ± 2.2 g | Body weight (mean ± standard deviation) ([1]; G4, Ex. 1 25 mg/kg, 2012.01.12, at the time of DSS treatment, 25 mg/kg): 22.8 ± 0.8 g | Body weight (mean ± standard deviation) ([1]; G4, Ex. 1 25 mg/kg, 2012.01.18, at autopsy after 7 days DSS 2.5 wt %, 25 mg/kg): 20.5 ± 0.9 g | Body weight (mean ± standard deviation) ([1]; G5, Ex. 1 50 mg/kg, 2012.01.12, at the time of DSS treatment, 50 mg/kg): 22.9 ± 1.1 g | Body weight (mean ± standard deviation) ([1]; G5, Ex. 1 50 mg/kg, 2012.01.18, at autopsy after 7 days DSS 2.5 wt %, 50 mg/kg): 21.4 ± 0.8 g | Body weight (mean ± standard deviation) ([1]; G6, Ex. 1 100 mg/kg, 2012.01.12, at the time of DSS treatment, 100 mg/kg): 22.2 ± 1.3 g | Body weight (mean ± standard deviation) ([1]; G6, Ex. 1 100 mg/kg, 2012.01.18, at autopsy after 7 days DSS 2.5 wt %, 100 mg/kg): 21.6 ± 0.7 g | Expression level of IL-1β (IL-1β): decreased expression levels | Side effect of weight gain ([2]; G3 to G6 (12.5-100 mg/kg)): not cause the side effect of weight gain | Side effects (hypersensitive reactions, nausea, vomiting, headache, etc.) ([2]; G3 to G6, extended test period of 12 weeks): did not suffer from the side effects | Rehabilitation of mucosal tissues by total pathologic score ([4]; G3 (12.5 mg/kg), FIG. 6): best rehabilitation of mucosal tissues | Histology of intestinal mucosa tissues (H&E) ([4]; G3 to G6 (12.5-100 mg/kg), FIG. 5): recovered the intestinal mucosa tissues to a normal state | Total pathologic score (H&E) ([4]; G3 to G6 (12.5-100 mg/kg), FIG. 6): lowered the pathologic score | Therapeutic effect (pathologic score) compared with control G7 ([4]; G3 to G6 vs G7 (Control 50 mg/kg)): equivalent to or higher than that of the control G7 | Expression level of TNF-α (TNF-α): decreased expression levels | Amount of malondialdehyde (MDA) (Malondialdehyde (MDA); G3 and G4 (12.5 and 25 mg/kg), with statistical significance): decrease | Level of MDA (Malondialdehyde (MDA); G3 to G6 (12.5-100 mg/kg), equivalency or superiority to control G7): decreased the level of MDA | Total antioxidant concentration in tissues [5]: increase in antioxidant concentration | Expression level of IL-12 (IL-12): decreased expression levels | COX-2 expression level (COX-2; G3 (12.5 mg/kg)): significantly increased | COX-2 expression levels in mucosal tissues (COX-2; G3 to G6 (12.5-100 mg/kg), immunofluorescence, FIG. 13): reduced COX-2 expression levels | COX-2 expression in the fascial tissue (COX-2; G4 to G6 (25-100 mg/kg), immunofluorescence): inhibited COX-2 expression even in the fascial tissue | COX-2 expression level (COX-2; other test groups (G4 to G6, 25-100 mg/kg)): significantly decrease | Colon length [6]: recovered the colon length

From US20150147411A1, “COMPOSITION FOR PREVENTING OR TREATING COLITIS COMPRISING S-ALLYL-L-CYSTEINE AS ACTIVE INGREDIENT, AND MEDICAL PREPARATION COMPRISING SAME” (PHARMAKING CO., LTD., priority 2012, published 2015)
